Assay results: the METLIN SMRT retention time set (Domingo-Almenara et al. 2019)

Experiment: gradient 5% acetonitrile 3 min, to 50% in 2 min, to 85% in 15 min, held 3 min, 100 µL/min
Conditions: column: Zorbax Extend-C18 2.1 x 50 mm; eluents: water / acetonitrile, 0.1% formic acid
In short: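 The system's dead and dwell volumes were 40 μL and 900 μL, with a Zorbax Extend-C18 column (2.1 × 50 mm, 1.8 μm) run at 100 μL/min in water and acetonitrile containing 0.1% formic acid each. Pure standards were analyzed in mixtures of ~100 molecules by HPLC–quadrupole time-of-flight mass spectrometry in positive and negative ionization mode. Retention time was assigned from computationally picked, manually inspected adduct peaks.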

SMILES	RP-LC retention time
CCc1ccccc1NC(=O)Cn1cnc2c(sc3nc(-c4ccccc4)ccc32)c1=O	1030 s
Cc1sc2cc(C(=O)N3CCN(c4ccccc4F)CC3)[nH]c2c1CN1CCOCC1	704 s
CCN(C(=O)Cc1c(C(=O)O)c(C)cn1CC)c1cc(C)ccc1C	892 s
CCSc1nnc(NC(=O)c2cc(=O)c(OCc3cccc(OC)c3)cn2C)s1	685 s
Cc1ccc(CNc2c(-c3ccc(C)c(C)c3)nc3ncccn23)cc1	834 s
COc1ccccc1CNc1ccc(-c2nc(-c3ccc(F)cc3)no2)cn1	1220 s
Cc1cc2nn(CC(=O)N3CCc4ccccc43)c(=O)n2c(Nc2ccccc2C)n1	1080 s
COC(=O)C1CCN(S(=O)(=O)CCCOc2cccc3c2OC(C)(C)C3)CC1	936 s
O=C(C1CC1)N1CCc2sc(S(=O)(=O)Nc3cccc(Cl)c3)cc2C1	879 s
Cc1ccccc1NC(=O)N1CCN(Cc2cn(C)c3ccccc23)CC1	589 s
O=c1c(=O)n(-c2ccccc2)ccn1Cc1nc(-c2ccc(Br)cc2)no1	901 s
CCn1ccc2c(cc(C(=O)Nc3ccc(C)cc3)n2C)c1=O	769 s
CC1CCN(S(=O)(=O)c2ccc3c(ccn3CCC(=O)N3CCN(c4ccccn4)CC3)c2)CC1	728 s
Cc1ccc(CNC(=O)CN2C(=O)CCc3cc(Br)ccc32)cc1	917 s
Cc1ccc(-c2nc3ncccn3c2Nc2ccc(C)c(Cl)c2)cc1	910 s
Cc1ccn2cc(-c3ccc(NC(=O)c4cccc(Br)c4)cc3)nc2n1	692 s
COC(=O)c1ccsc1NC(=O)c1ccccc1Cl	897 s
CCOC(=O)c1ccc(NC(=O)NCC(c2cccnc2)c2c[nH]c3ccccc23)cc1 (stereo not given)	814 s
COc1ccc(-c2noc(-c3cccn(CC(=O)Nc4cccc(SC)c4)c3=O)n2)cc1OC	853 s
COc1cccc(CNC(=O)Cn2cnc3onc(C)c3c2=O)c1	708 s
CCC(C)C(NC(=O)c1ccccc1)C(=O)Nc1nc2ccccc2[nH]1 (stereo not given)	718 s

SMILES	RP-LC retention time
O=C(NC1CCCCC1)C1CCN(c2nc3ccc(-c4cncnc4)nc3s2)CC1	830 s
c1ccc(Nc2c(-c3ccc(N4CCOCC4)cc3)nc3ccccn23)cc1	670 s
O=C(Cc1ccccc1Cl)N1CCN(c2cc(-c3cccs3)[nH]n2)CC1	819 s
COc1ccc(NC(=O)C2CCc3sc(C(=O)N(C)C)cc3C2)cc1 (stereo not given)	663 s
Cc1ccc2c(=O)c3c([nH]c2c1C)CCN(CC(=O)Nc1ccccc1F)C3	612 s
CC(Oc1ccc(=O)n(-c2ccc(F)cc2)n1)C(=O)Nc1ccccc1Cl (stereo not given)	826 s
O=C(Nc1ccc(Br)cc1)C1CC(=O)N(c2n[nH]c3cccc(F)c23)C1 (stereo not given)	782 s
CCn1cc(-c2nc(C)c(C(=O)Nc3cccc(C)c3)s2)c2cccnc21	971 s
c1cnn(-c2cc(N3CCSCC3)ncn2)c1	833 s
CCOc1cccc(-c2noc(Cn3c(=O)n(Cc4cccc(OC)c4)c(=O)c4sccc43)n2)c1	1150 s
CSc1ccc(C2c3[nH]c4ccccc4c3CCN2C(=O)c2ccncc2)cc1 (stereo not given)	958 s
CCn1nccc1-c1cccc(-c2noc(-c3cccc(NC(=O)c4ccco4)c3)n2)c1	1080 s
Cc1csc(-c2ccc(CNC(=O)Cc3cccc(F)c3)cc2)n1	848 s
O=C(NCC1CCCCC1)C1(CCO)CCN(c2ncccn2)C1 (stereo not given)	629 s
CCn1cc(-c2nc(C)c(C(=O)Nc3ccc(N4CCOCC4)cc3)s2)c2cccnc21	863 s
COc1ccc(CC(=O)NCC(=O)Nc2nc3ccccc3[nH]2)c(Cl)c1	653 s
C=CCN1C(=O)COc2ccc(-c3csc(NC(=O)c4ccco4)n3)cc21	882 s
CN=C(NC#N)NCCSCc1csc(N=C(N)N)n1	616 s
Cc1cccc(NC(=O)Cn2nc3c(Oc4cccc(F)c4)nccn3c2=O)c1	864 s
CCc1ccccc1N1C(=O)CN(S(=O)(=O)CC)CC1(C)C(=O)NCc1ccccc1 (stereo not given)	860 s
Nc1ncnc2c1nc(Br)n2C1O[C@H]2COP(=O)(O)O[C@@H]2[C@@H]1O (stereo not given in full)	549 s

SMILES	RP-LC retention time
Cc1sc2ccn(C)c(=O)c2c1C(=O)NCCN1CCc2ccccc2C1	687 s
COc1ccc(NS(=O)(=O)c2cc3c4c(c2)CCC(=O)N4CCC3)cc1OC	730 s
CC(C)NC(=O)C(=O)NCc1n[nH]c(=O)c2ccccc12	621 s
CC1CCN(CCCNc2ccc(-c3nc(-c4ccc(F)cc4)no3)cn2)CC1	740 s
CCCN(C(=O)Cc1ccc(OC)c(OC)c1)c1nc(-c2ccc(C)cc2)cs1	1310 s
Cc1ccccc1Nc1c(-c2ccc(N3CCOCC3)cc2)nc2ccc(Cl)cn12	805 s
Cc1ccc(NC(=O)N2CCc3nc(-c4ccccc4)ncc3C2)cc1C	995 s
O=C(CN1c2ccc(F)cc2-c2ccccc2S1(=O)=O)NCc1ccccc1	939 s
NS(=O)(=O)c1ccc(NC(=O)CSc2ccc3ccccc3n2)cc1	736 s
O=[N+]([O-])c1ccc(CSc2ccc(-c3ccccn3)nn2)cc1	893 s
CCCCNC(=O)NC1CCS(=O)(=O)C1 (stereo not given)	571 s
CCOc1cc(C2c3c(oc4ccccc4c3=O)C(=O)N2CCCN(C)C)ccc1O (stereo not given)	989 s
CCCNC(=O)c1ccc2c(=O)n(Cc3ccc(C)cc3)c(N(CC)CC)nc2c1	1060 s
O=C(NCCCn1cccc1)C1COc2ccccc2O1 (stereo not given)	803 s
O=C(Nc1cccnc1)c1cccc([N+](=O)[O-])c1	661 s
Cc1nnc2ccc(-c3noc(CCc4ccccc4)n3)cn12	1140 s
CCOC(=O)c1ccccc1NC(=O)NCC(c1cccnc1)c1c[nH]c2ccccc12 (stereo not given)	756 s
COc1cccc(-c2ccc(=O)n(CCc3nc(-c4ccc(Br)cc4)no3)n2)c1	1110 s
O=C(NCCC1CCN(C(=O)Nc2ccccc2)CC1)c1ccsc1	749 s

The next lines start with the values.

RP-LC retention time	SMILES
875 s	COCCn1nc(N2CCCC(NS(=O)(=O)c3c(C)c(C)cc(C)c3C)C2)ccc1=O (stereo not given)
726 s	COc1cc(CNC(=O)c2ccc3c(c2)NC(=O)C2CCCCN32)cc(OC)c1OC (stereo not given)
646 s	CCn1c(N2CCN(C(=O)NCc3ccccc3)CC2)nc2ccccc21
794 s	O=c1n(CCOc2ccccc2)nc2c(S(=O)(=O)N3CCCC3)cccn12
883 s	CCC(=O)N1c2ccc(S(=O)(=O)N3CCCCC3)cc2CC1C(=O)NC1CCCC1 (stereo not given)
638 s	Cn1nc(C(=O)N2CCCC(c3nnc(C(F)(F)F)o3)C2)ccc1=O (stereo not given)
701 s	CN1C(=O)C2CCCCN2c2ccc(C(=O)N3CCN(C(=O)c4ccco4)CC3)cc21 (stereo not given)
791 s	O=C(COc1ccc(F)cc1)N1CCC(c2noc(C3CC3)n2)C1 (stereo not given)
1040 s	Cc1cccc(NC(=O)CSc2cc(N3CCC(C)CC3)ncn2)c1
865 s	Cc1c(C(=O)NC(C)C)cnn1-c1cc(-c2nc(C3CC3)no2)ccn1
896 s	Cc1ccc(S(=O)(=O)N2CCCC2CNC(=O)c2ccc(F)c(F)c2)cc1 (stereo not given)
731 s	CCn1c(N2CCCC(C(=O)NCc3ccco3)C2)cc(=O)n(C)c1=O (stereo not given)
747 s	Cc1ccc(S(=O)(=O)N2CC(Cc3nncn3C3CCCC3)C2)cc1F
713 s	Cc1cc2c(N3CCCC(C(=O)NCc4cccc(Cl)c4)C3)nccc2s1 (stereo not given)
931 s	COc1ccc(-c2cn3c(CC(=O)N(Cc4cccs4)C4CCCCC4)csc3n2)cc1OC
648 s	CCCNC(=O)C1CCN(S(=O)(=O)c2cc(C(=O)N3CCCC3)n(C)c2)CC1
910 s	CC(C)c1ccc(C(=O)N2CCCC2COc2ccc(C(=O)NC3CC3)cc2)cc1 (stereo not given)
653 s	O=c1c2ccccc2nc2n1CCCC2
610 s	O=C(NCC1CCN(c2ncccn2)CC1)Nc1c(F)cccc1F
717 s	CCn1cc(S(=O)(=O)N2CCC(c3nn(C)c(=O)n3C3CCCC3)CC2)cn1
629 s	Cc1cc(C)n(Cc2ccc(C(=O)N3CCN(c4cc(=O)n(C)c(=O)n4C)CC3)o2)n1
1040 s	CSc1cccc(NC(=O)N2CCCC2c2nc(-c3ccc(F)cc3)no2)c1 (stereo not given)
733 s	Cc1cc(=O)n(CC(=O)Nc2cc(F)cc(F)c2)c(N2CCCCC2)n1
639 s	CCc1noc(-c2ccc(SCC(=O)N3CCC(C(N)=O)CC3)nc2)n1
944 s	CCc1ccc(C2=C(C)C(N3CCC(C(=O)NCc4ccc(C)o4)CC3)=NS2(=O)=O)cc1
648 s	Cc1cc2n(n1)CCC(=O)N2CCCC(=O)NCCc1cccs1
1070 s	O=C(Nc1ccccc1)N1CCN(c2nc3ccccc3nc2C(F)(F)F)CC1
1060 s	O=C(Nc1cc(-c2ccsc2)no1)c1ccc(C(F)(F)F)cc1
1060 s	Cc1ccc(N2CCN(Cc3nc(-c4ccc(N5CCCC(C)C5)nc4)no3)CC2)cc1 (stereo not given)
